Measurements: patent publication US20240076347A1, “METHODS FOR PREVENTING FUNGAL INFECTIONS” (Cidara Therapeutics, Inc., priority 2016, published 2024)
Numbered stars: 1 amine (or outer) side, 2 acyl side, 3 side chain; on linkers, the order of the positions; unused ones are H or OH. Bridge positions count the residues as written; N and C are the ends. Square brackets hold non-standard residues; d marks the D form. Peptide text beside a SMILES is read from it. * marks the point of attachment. ξ: configuration not given here. Orn(4R-OH,5R-OCH2CH2NMe3+) = C[N+](C)(C)CCO[C@@H](N[*:3])[C@H](O)C[C@H](N[*:1])C(=O)[*:2]; pTerphenylCO(4''-OnC5H11) = CCCCCOc1ccc(-c2ccc(-c3ccc(C(=O)*)cc3)cc2)cc1; hTyr(3S-OH,4S-OH) = N[C@H](C(=O)O)[C@H](O)[C@@H](O)c1ccc(O)cc1; X1 = C[C@H]1CN([*:1])C(C(=O)[*:2])C1O; Hyp = O=C(O)[C@@H]1C[C@@H](O)CN1; ξT = CC(O)C(N)C(=O)O

What was measured:
[1] = Early pharmacokinetic studies, SC tolerability; assay type: in vivo, rats and monkeys; conditions: lower doses (≤5 mg/kg)
[2] = tested on: C. albicans strain 529L; assay: Rat model of vulvovaginal candidiasis, vaginal lavage and tissue burden; assay type: in vivo, Candida albicans; conditions: for reduction in terminal vaginal tissue burden: not statistically lower than vehicle
Procedure: Animal Strain. Wistar rats were supplied by Harlan Laboratories UK and were specific pathogen free. Rats weighed […] at the time of surgery. Ovariectomies were performed. Rats were allowed 4-7 days recovery before transportation to the facility where the experiment was to be performed. Following arrival, rats were allowed at least 4 days acclimatization before start of the experiment. Rats weighed 100-120 g at the time of ovariectomy and were about 300 g at start of the experiment.
Pre-conditioning. Female Wistar rats underwent ovariectomy at least 10 days prior to the study commencing. They were further pre-conditioned by treatment with 5 mg/kg 17-β-estradiol administered subcutaneously (SC) every other day on Days −7, −5, −3 and −1 prior to infection with C. albicans strain 529. Estradiol treatment continued every other day throughout the study to 7 days post-infection.
Yeast Isolate. Candida albicans strain 529L was used in this chronic rat vaginal infection model.
Infection. Yeast strains were inoculated aerobically onto Sabouraud dextrose agar media (SAB) containing 0.05 mg/mL chloramphenicol and incubated at 30° C. for 48-72 h. 18-24 h prior to infection, Yeast Peptone Dextrose (YPD) broths were inoculated with 2-3 isolated colonies from agar plates and incubated overnight (37° C. on an orbital shaker). Broths containing C. albicans strain 529L were washed 3 times with sterile phosphate buffered saline (PBS) before dilution to the correct inoculum for infection. Cell counts were determined using a haemocytometer and confirmed by quantitative culture on Sabouraud dextrose agar.
Rats were infected with 0.1 mL by intravaginal administration under inhaled isoflurane anaesthesia using about 9.8×10^5 CFU/mL (9.8×10^4 CFU/Rat) C. albicans strain 529L
Treatment. […] The fluconazole treatment also started at 24 h post infection but was administered by the PO route at the dose volume and frequency shown in Table 7. The study design is further outlined in FIG. 19.
Reduction in weight and general loss of condition due to estradiol treatment are also typical in this rat model. Colonization with C. albicans was determined by quantitative culture of daily vaginal lavage samples. Rats were euthanized 9 days post infection and C. albicans determined by quantitative culture of vaginal tissue (including uterine horns).
Lavage samples were obtained on Days 1 (pre-treatment), 2, 3, 5, 7, and 9 days post infection by flushing rat vaginas 4 times with 0.1 mL pre-warmed sterile PBS. Following euthanasia, vaginal tissue including uterine horns was removed prior to weighing. Tissues were homogenized in 2 mL sterile PBS using a bead-beater. Vaginal wash and tissue homogenates were diluted appropriately then quantitatively cultured on to Sabouraud dextrose agar containing 0.05 mg/mL chloramphenicol and incubated at 37° C. for up to 72 h before being counted.
Statistical analysis. Data were analyzed using StatsDirect software (version 2.7.8) using the non-parametric Kruskal-Wallis test and if this was statistically significant all pairwise comparisons were analyzed (Conover-Inman).

[3] = Pharmacokinetic profile in female rats, SC and IV; conditions: rat, in vivo
Text: Pharmacokinetic Profile of CD101. The pharmacokinetic (PK) profile of CD101 in female rats (three per group) was characterized.

[4] = Monkey SC tolerability study; assay type: in vivo, cynomolgus monkeys
Procedure: Therefore, only local tolerability (and PK) of CD101 by SC administration required evaluation. […] Plasma concentrations were then quantified by liquid chromatography with tandem mass spectrometric detection (LC-MS/MS). Bioavailability from SC dosing was calculated by comparing the calculated area under the concentration-time profile (AUC) from SC against the AUC from IV administration of the same dose.
Therefore, a separate study was designed to evaluate the tolerability of a SC dose of CD101 as a highly concentrated solution (100 mg/mL; 30 mg/kg) in two cynomolgus monkeys. […] The drug reaches a maximum concentration within a few hours then remains nearly constant over the course of 10 days.

[5] = lavage Day 1 post treatment (Day 2 post infection), 5 mg/kg SC dosed once
[6] = lavage Day 1 post treatment (Day 2 post infection), 5 mg/kg SC dosed twice
[7] = lavage Day 1 post treatment (Day 2 post infection), 10 mg/kg SC dosed once
[8] = lavage Day 2 post treatment (Day 3 post infection), 5 mg/kg SC dosed once
[9] = lavage Day 2 post treatment (Day 3 post infection), 5 mg/kg SC dosed twice
[10] = lavage Day 2 post treatment (Day 3 post infection), 10 mg/kg SC dosed once
[11] = lavage Day 4 post treatment (Day 5 post infection), 5 mg/kg SC dosed once
[12] = lavage Day 4 post treatment (Day 5 post infection), 5 mg/kg SC dosed twice
[13] = lavage Day 4 post treatment (Day 5 post infection), 10 mg/kg SC dosed once
[14] = lavage Day 5 post infection, 10 mg/kg SC once
[15] = lavage Day 6 post treatment (Day 7 post infection), 5 mg/kg SC dosed once
[16] = lavage Day 6 post treatment (Day 7 post infection), 5 mg/kg SC dosed twice
[17] = lavage Day 6 post treatment (Day 7 post infection), 10 mg/kg SC dosed once
[18] = lavage Day 8 post treatment (Day 9 post infection), 5 mg/kg SC dosed once
[19] = lavage Day 8 post treatment (Day 9 post infection), 5 mg/kg SC dosed twice
[20] = lavage Day 8 post treatment (Day 9 post infection), 10 mg/kg SC dosed once
[21] = terminal vaginal tissue (vagina, uterus, uterine horns) Day +9 post infection, 5 mg/kg SC dosed once
[22] = terminal vaginal tissue Day +9 post infection, 5 mg/kg SC dosed twice
[23] = terminal vaginal tissue Day +9 post infection, 10 mg/kg SC dosed once
[24] = vaginal lavage Day 1 post infection, pre-treatment, 5 mg/kg SC dosed once group
[25] = vaginal lavage Day 1 post infection, pre-treatment, 5 mg/kg SC dosed twice group
[26] = vaginal lavage Day 1 post infection, pre-treatment, 10 mg/kg SC dosed once group

## CCCCCOc1ccc(-c2ccc(-c3ccc(C(=O)N[C@H]4C[C@@H](O)[C@@H](OCC[N+](C)(C)C)NC(=O)C5C(O)[C@@H](C)CN5C(=O)[C@H]([C@@H](C)O)NC(=O)[C@H]([C@H](O)[C@@H](O)c5ccc(O)cc5)NC(=O)[C@@H]5C[C@@H](O)CN5C(=O)C(C(C)O)NC4=O)cc3)cc2)cc1 (stereo partly drawn) [CD101] ({pTerphenylCO(4''-OnC5H11)}-[Orn(4R-OH,5R-OCH2CH2NMe3+)][ξT][Hyp][hTyr(3S-OH,4S-OH)]T[X1]; lactam 1-C)
[1]
  tolerability of subcutaneous administration: well-tolerated
[2]; 5 mg/kg SC once, Day 9
  reduction in terminal vaginal tissue burden: about 0.4 Log10 CFU/g
[2]; 5 mg/kg SC twice, Day 9
  reduction in terminal vaginal tissue burden: about 0.9 Log10 CFU/g
[2]; 10 mg/kg SC once, Day 9
  rats with tissue burdens below the levels of detection: 5/6
[2]; 10 mg/kg SC once, all but one rat, Day 9
  CFU: undetectable CFU
[2]; [5]
  Group Geometric mean: 3.34 × 10^2 CFU/mL
  Log Group Geometric mean: 2.52 CFU/mL
  Log reduction from vehicle control: 1.17 CFU/mL
[2]; [6]
  Group Geometric mean: 2.56 × 10^2 CFU/mL
  Log Group Geometric mean: 2.41 CFU/mL
  Log reduction from vehicle control: 1.29 CFU/mL
[2]; [7]
  Group Geometric mean: 2.48 × 10^2 CFU/mL
  Log Group Geometric mean: 2.39 CFU/mL
  Log reduction from vehicle control: 1.30 CFU/mL
[2]; lavage Day 2 post infection
  burden vs vehicle, statistics: neither the CD101 nor fluconazole burden was statistically different from the vehicle burden
[2]; lavage Day 2 post infection, all doses of CD101
  reduction in burden: about 1.3 Log10 CFU/mL
[2]; [8]
  Group Geometric mean: 1.21 × 10^2 CFU/mL
  Log Group Geometric mean: 2.08 CFU/mL
  Log reduction from vehicle control: 1.49 CFU/mL
[2]; [9]
  Group Geometric mean: 1.95 × 10^2 CFU/mL
  Log Group Geometric mean: 2.29 CFU/mL
  Log reduction from vehicle control: 1.28 CFU/mL
[2]; [10]
  Group Geometric mean: 23.2 CFU/mL
  Log Group Geometric mean: 1.37 CFU/mL
  Log reduction from vehicle control: 2.21 CFU/mL
[2]; lavage Day 3 post infection, all treatments
  burden vs vehicle, statistics: statistically different from the vehicle treatments
[2]; [11]
  Group Geometric mean: 1.70 × 10^3 CFU/mL
  Log Group Geometric mean: 3.23 CFU/mL
  Log reduction from vehicle control: 0.99 CFU/mL
[2]; [12]
  Group Geometric mean: 1.73 × 10^3 CFU/mL
  Log Group Geometric mean: 3.24 CFU/mL
  Log reduction from vehicle control: 0.98 CFU/mL
[2]; [13]
  Group Geometric mean: 1.73 CFU/mL
  Log Group Geometric mean: 0.24 CFU/mL
  Log reduction from vehicle control: 3.98 CFU/mL
[2]; lavage Day 5 post infection, 5 mg/kg SC once or twice, not statistically different from vehicle
  burden reduced to: about 1 Log10 CFU/m
[2]; [14]
  burden reduced to: about 4 Logo CFU/mL
  rats having burden below the limit of detection: 5/6
[2]; [15]
  Group Geometric mean: 4.56 × 10^3 CFU/mL
  Log Group Geometric mean: 3.66 CFU/mL
  Log reduction from vehicle control: 0.52 CFU/mL
[2]; [16]
  Group Geometric mean: 6.47 × 10^2 CFU/mL
  Log Group Geometric mean: 2.81 CFU/mL
  Log reduction from vehicle control: 1.37 CFU/mL
[2]; [17]
  Group Geometric mean: 2.59 CFU/mL
  Log Group Geometric mean: 0.41 CFU/mL
  Log reduction from vehicle control: 3.77 CFU/mL
[2]; [18]
  Group Geometric mean: 4.58 × 10^3 CFU/mL
  Log Group Geometric mean: 3.66 CFU/mL
  Log reduction from vehicle control: 0.64 CFU/mL
[2]; [19]
  Group Geometric mean: 1.28 × 10^3 CFU/mL
  Log Group Geometric mean: 3.11 CFU/mL
  Log reduction from vehicle control: 1.19 CFU/mL
[2]; [20]
  Group Geometric mean: 2.75 CFU/mL
  Log Group Geometric mean: 0.44 CFU/mL
  Log reduction from vehicle control: 3.86 CFU/mL
[2]; [21]
  Group Geometric mean: 1.37 × 10^5 CFU/g
  Log Group Geometric mean: 5.14 CFU/g
  Log reduction from vehicle control: 0.36 CFU/g
[2]; [22]
  Group Geometric mean: 4.00 × 10^4 CFU/g
  Log Group Geometric mean: 4.60 CFU/g
  Log reduction from vehicle control: 0.89 CFU/g
[2]; [23]
  Group Geometric mean: 5.52 CFU/g
  Log Group Geometric mean: 0.74 CFU/g
  Log reduction from vehicle control: 4.75 CFU/g
[2]; [24]
  Group Geometric mean: 9.11 × 10^2 CFU/mL
  Log Group Geometric mean: 2.96 CFU/mL
  Log reduction from vehicle control: −0.52 CFU/mL
[2]; [25]
  Group Geometric mean: 1.83 × 10^3 CFU/mL
  Log Group Geometric mean: 3.26 CFU/mL
  Log reduction from vehicle control: −0.83 CFU/mL
[2]; [26]
  Group Geometric mean: 3.68 × 10^2 CFU/mL
  Log Group Geometric mean: 2.57 CFU/mL
  Log reduction from vehicle control: −0.13 CFU/mL
[3]; SC
  Tmax: 8 to 24 h
[3]; sc, 10 mg/kg
  bioavailability: 97%
[3]; subcutaneous, 10 mg/kg, read-out: t½ (converted)
  half-life: 48 h
[4]; single 30 mg/kg SC (100 mg/mL)
  local (injection site) tolerability: no sign of irritation or local (injection site) adverse toxicity
[4]; single 30 mg/kg SC, 10 days follow-up
  bodyweight and food consumption: no effect on bodyweight or food consumption
